Measured values from article PMC6749236, “Synthesis of Novel 2-(Het)arylpyrrolidine Derivatives and Evaluation of Their Anticancer and Anti-Biofilm Activity” (Molecules, 2019).
“And” between values parts separate entries of the source, which are not always exact repeats. Equal values may be shown once. Marks after values point to notes of the source that are not given here.

How the values were obtained:
[1] = system: E. coli MG1655 (pSoxS-lux); assay: Prooxidant activity, bacterial lux-biosensor; format: cell-based, Escherichia coli
Excerpt: (§1) E. coli MG1655 (pRecA-lux) was used for the evaluation of the genotoxicity of the synthesized compounds. The biosensor with the PrecA promotor fixes the presence of the factors causing damage of DNA in a cell. The biosensor E. coli MG1655 (pSoxS-lux) was used for the evaluation of prooxidant activity. The biosensor with the PsoxS promoter fixes the production of superoxide anion and NO [75]. Bioluminescent strains were obtained by the transformation of E. coli MG1655 by hybrid plasmids pRecA-lux, pSoxS-lux. The gene cassette luxCDABE Photorhabdus luminescens under the control PrecA promoters was used in this biosensor. This plasmid was created on the basis of pBR322 and contained a selective marker of ampicillin resistance (Amp gene). The strains were kindly furnished by Manukhov I.V., Federal State Unitary Enterprise “GosNIIGenetika”).
(§2) The bacterial strains Acinetobacter calcoaceticus VKPM B-10353, E. coli MG1655 (pRecA-lux), and E. coli MG1655 (pSoxS-lux) were cultivated in Luria–Bertani (LB) medium under constant shaking to early exponential phase at 37 °C. Cells were used immediately for stress induction tests. One hundred micrograms of ampicillin per milliliter were added into LB medium at cultivation of E. coli MG1655 (pRecA-lux) and E. coli MG1655 (pSoxS-lux). Strain V. aquamarinus DSM 26054 was grown in LB medium supplemented with 3% NaCl.
(§3) Biosensors assay procedure. The detailed protocol of toxicity testing by means of a bacterial lux-biosensors is described in the article.
(§4) Calculation. The criterion of toxic influence was bioluminescence intensity change of the test object in the researched sample in comparison with the control sample.
(§5) The induction factor (I) was defined as the relation of luminescence intensity of a lux-biosensor suspension containing tested sample (Lc) to the luminescence intensity of a lux-biosensor control suspension (Lk): I = Lc/Lk.
(§6) Difference reliability of bioluminescence in experiment from control value was estimated by t-criterion with the help of Excel software. The conclusions about sample toxicity were made at p < 0.05.

[2] = system: Escherichia coli MG1655 (pRecA-lux); assay: Genotoxicity, bacterial lux-biosensor; format: cell-based
Excerpt: as §1, §2, §3, §4, §5
If at significant differences from control induction factor values were ≤2, the detected genotoxic effect was evaluated as “weak”, if they were in the range from 2 to 10 as “medium”, and above 10 as “strong”. All the experiments were carried out three times independently.
as §6

M-Hela = assay: Cytotoxicity assay (Cytell Cell Imaging, DAPI/propidium iodide), cancer cell line; format: cell-based; conditions: Homo sapiens; M-Hela; tested at 1–100 µM; three independent experiments; read-out: IC50 Cancer Cell Line M-Hela
[3] = system: Acinetobacter calcoaceticus VKPM B-10353; assay: Biofilm formation, crystal violet assay; format: cell-based; conditions: A. calcoaceticus VKPM B-10353; for Biofilm Formation: control = 100%
Method: (§7) Bacterial strains and cultivation conditions. For the detection of biofilms, formation strains Vibrio aquamarinus DSM 26054 and Acinetobacter calcoaceticus VKPM B-10353 were used. These strains form biofilms, making them useful for studying biofilms.
as §2
(§8) The test compounds were dissolved in DMSO to the concentration of 1 × 10^−2 M. Then, they were diluted with ethanol. The control solutions were analogous dilutions of DMSO in ethanol. The tested compounds were also compared with the standard antibiotic azithromycin. Azithromycin was dissolved in DMSO to the concentration of 5 × 10^−3 M and then diluted with deionized water.
(§9) Test system for evaluation of biofilms production. To quantify the formation of biofilms, the crystal violet assay was used, with some modifications. The necessary concentrations of the test compounds were prepared as described above.
(§10) V. aquamarinus DSM 26054 was cultivated for 24 h in LB medium supplemented with 3% NaCl in the Innova 40R shaker incubator (New Brunswick Scientific, USA) at 25 °C and 200 rpm. A. calcoaceticus VKPM B-10353 was cultivated for 24 h in LB medium in the Innova 40R shaker incubator (New Brunswick Scientific, Enfield, CT, USA) at 30 °C and 200 rpm. Then, the suspensions of the daily culture of V. aquamarinus DSM 26054 and A. calcoaceticus VKPM B-10353 were diluted with LB medium supplemented with 3% NaCl to the density of 1 × 10^8 cells/mL.
(§11) The resulting suspension (180 μL) was added to the wells of a polystyrene microplate (Nuova Aptaca, Canelli, Italy). To some of the wells, 20 μL of the test substances at various concentrations were added. Since solvents used could also influence the biofilm formation, 20 μL of the appropriate solvent was added to the other part of the wells at same dilutions (control). Six replicates were done for each treatment and control. The microplate was covered with a lid and wrapped with Parafilm (Bemis Company, Inc., Oshkosh, WI, USA).
(§12) After incubation at 25 °C for 72 h, biofilms were stained. The contents in the wells were removed by means of a dispenser. The wells were then carefully washed three times with 250 μL of sterile saline. The microplates were shaken to remove all non-adherent bacteria. Biofilms were fixed with 200 μL of 96% ethanol for 15 min. After the microplates had dried in air, 200 μL of 0.5% crystal violet was introduced into the wells. After 10 min, the dye was removed. The excess dye was removed by washing with water three times. After the microplates were air-dried, the dye in the wells bound to biofilms was dissolved with 200 μL of 96% ethanol. The extraction level (absorption) of crystal violet by ethanol was measured after 60 minutes at a wavelength of 570 nm using a FLUOstar Omega microplate reader (BMG Labtech, Offenburg, Germany) in optical density units (OD570). The intensity of biofilm formation directly corresponds to the intensity of staining of the contents of the wells with the dye. Biofilm formation was determined by the difference between the mean OD readings obtained in the presence of compounds and the control.
(§13) Each experiment was performed in triplicate. The values were expressed as mean + SD. Student’s t-test was used to compare these values. Differences were considered statistically significant at p < 0.05.

[4] = system: Vibrio aquamarinus DSM 26054; assay: Biofilm formation, crystal violet assay; format: cell-based; conditions: V. aquamarinus DSM 26054, control = 100%
Method: as §7, §2, §8, §9, §10, §11, §12, §13

Chang liver cell line = assay: Cytotoxicity assay (Cytell Cell Imaging), normal cell line; format: cell-based; conditions: Homo sapiens, tested at 1–100 µM, three independent experiments, read-out: IC50 Normal Cell Line Chang Liver
[5] = concentration range of 10^−9–10^−5 M
[6] = with metabolic activation (+S9), 10^−5 M
[7] = with metabolic activation (+S9), 10^−6 M
[8] = with metabolic activation (+S9), 10^−7 M
[9] = with metabolic activation (+S9), 10^−8 M
[10] = with metabolic activation (+S9), 10^−9 M
[11] = without metabolic activation (-S9), 10^−5 M
[12] = without metabolic activation (-S9), 10^−6 M
[13] = without metabolic activation (-S9), 10^−7 M
[14] = without metabolic activation (-S9), 10^−8 M
[15] = without metabolic activation (-S9), 10^−9 M

| SMILES | Prooxidant activity (induction factor) ([1]; 10^−5 M) | Prooxidant activity (induction factor) ([1]; 10^−6 M) | Prooxidant activity (induction factor) ([1]; 10^−7 M) | Prooxidant activity (induction factor) ([1]; 10^−8 M) | Prooxidant activity (induction factor) ([1]; 10^−9 M) | detected genotoxic effect, class [2, 5] | Genotoxicity (induction factor, I) [2, 6] | Genotoxicity (induction factor, I) [2, 7] | Genotoxicity (induction factor, I) [2, 8] | Genotoxicity (induction factor, I) [2, 9] | Genotoxicity (induction factor, I) [2, 10] | Genotoxicity (induction factor, I) [2, 11] | Genotoxicity (induction factor, I) [2, 12] | Genotoxicity (induction factor, I) [2, 13] | Genotoxicity (induction factor, I) [2, 14] | Genotoxicity (induction factor, I) [2, 15] | melting point | IC50 (M-Hela) [µM] | Biofilm Formation ([3]; 1 × 10^−5 M) | Biofilm Formation ([3]; 1 × 10^−6 M) | further results |
| --- | --- | --- | --- | --- | --- | --- | --- | --- | --- | --- | --- | --- | --- | --- | --- | --- | --- | --- | --- | --- | --- |
| O=C(Nc1ccccc1)N1CCCC1c1ccc(Nc2c([N+](=O)[O-])c(Cl)cc3c2no[n+]3[O-])cc1O (stereo not drawn) [6b, 6-Chloro-4-((3-hydroxy-4-(1-(phenylcarbamoyl)pyrrolidin-2-yl)phenyl)amino)-5-nitrobenzo[c][1,2,5]oxadiazole 1-oxide] | 0.89 ± 0.03 | 1.24 ± 0.11 | 1.04 ± 0.04 | 1.21 ± 0.00 | 1.03 ± 0.10 | medium (in the range from 2 to 10) | 1.23 ± 0.02 | 1.36 ± 0.04 | 1.30 ± 0.02 | 1.31 ± 0.01 | 1.47 ± 0.04 | 1.77 ± 0.04 | 2.15 ± 0.06 | 2.07 ± 0.11 | 2.28 ± 0.12 | 2.34 ± 0.06 | 165 to 170 °C (dec.) | 56 ± 4.1 | 119.69 * % | 88.44% | prooxidant activity, in words ([1]; 10^−9–10^−5 M): did not possess prooxidant activity; detected genotoxic effect, class ([2]; concentration of 10^−5 M): weak (induction factor values were ≤2); Biofilm Formation ([3]; 1 × 10^−7 M): 73.93 * %; Biofilm Formation ([3]; 1 × 10^−8 M): 70.79 * %; Biofilm Formation ([3]; 1 × 10^−9 M): 90.41%; Biofilm formation with respect to control, over the investigated concentrations ([3]; 1 × 10^−9–1 × 10^−5 M): both suppressing and stimulating; Biofilm Formation ([4]; 1 × 10^−5 M): 89.12%; Biofilm Formation ([4]; 1 × 10^−6 M): 39.02 * %; Biofilm Formation ([4]; 1 × 10^−7 M): 26.04 * %; Biofilm Formation ([4]; 1 × 10^−8 M): 15.42 * %; Biofilm Formation ([4]; 1 × 10^−9 M): 8.21 * %; IC50 (Chang liver cell line): > 100 µM |
| COc1ccc(NC(=O)N2CCCC2c2ccc(Nc3c([N+](=O)[O-])c(Cl)cc4c3no[n+]4[O-])cc2O)cc1 (stereo not drawn) [6c, 6-Chloro-4-((3-hydroxy-4-(1-((4-methoxyphenyl)carbamoyl)pyrrolidin-2-yl)phenyl)amino)-5-nitrobenzo[c][1,2,5]oxadiazole 1-oxide] | 0.96 ± 0.09 | 1.46 ± 0.03 | 1.68 ± 0.20 | 1.54 ± 0.20 | 1.11 ± 0.03 | medium (in the range from 2 to 10) | 1.35 ± 0.02 | 1.54 ± 0.03 | 1.49 ± 0.02 | 1.37 ± 0.02 | 1.30 ± 0.01 | 2.33 ± 0.04 | 2.82 ± 0.05 | 2.64 ± 0.14 | 2.84 ± 0.02 | 2.67 ± 0.07 | 196 to 202 °C (dec.) | 26 ± 1.9 | 82.82% | 79.31 * % | prooxidant response, in words ([1]; 10^−8–10^−7 M): weak response; genotoxicity under conditions of metabolic activation, in words ([2]; +S9, concentration range of 10^−7–10^−6 M): registered; Biofilm Formation ([3]; 1 × 10^−7 M): 72.77 * %; Biofilm Formation ([3]; 1 × 10^−8 M): 55.74 * %; Biofilm Formation ([3]; 1 × 10^−9 M): 93.75%; Biofilm Formation ([4]; 1 × 10^−5 M): 26.65 * %; Biofilm Formation ([4]; 1 × 10^−6 M): 18.28 * %; Biofilm Formation ([4]; 1 × 10^−7 M): 9.22% and 9.22 * %; Biofilm Formation ([4]; 1 × 10^−8 M): 14.67 * %; Biofilm Formation ([4]; 1 × 10^−9 M): 13.54% and 13.54 * %; IC50 (Chang liver cell line): 62 ± 4.3 µM |
